In patent US8394952B2 (Vertex Pharmaceuticals Incorporated, priority 2006, dated 2013):

Molecular target: Plk1 (Homo sapiens, UniProt P53350)
Test: biochemical

Plk1, sequence (P53350 20-338): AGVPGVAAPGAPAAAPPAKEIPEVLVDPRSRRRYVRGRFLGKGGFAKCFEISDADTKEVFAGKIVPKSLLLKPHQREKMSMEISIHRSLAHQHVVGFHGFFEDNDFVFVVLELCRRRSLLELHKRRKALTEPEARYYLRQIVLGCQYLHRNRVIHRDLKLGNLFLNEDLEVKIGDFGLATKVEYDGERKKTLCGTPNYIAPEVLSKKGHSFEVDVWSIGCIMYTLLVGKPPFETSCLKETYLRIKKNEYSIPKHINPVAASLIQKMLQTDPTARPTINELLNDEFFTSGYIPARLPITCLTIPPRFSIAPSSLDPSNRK

Row | SMILES | Ki
1 | COc1cc(C(=O)N[C@@H]2CCC[C@H]2O)ccc1Nc1ncc2c(n1)N(C1CCCC1)CC(C)(C)C(=O)N2C [Compound I-244, 4-(9-cyclopentyl-5,7,7-trimethyl-6-oxo-6,7,8,9-tetrahydro-5H-pyrimido[4,5-b][1,4]diazepin-2-ylamino)-N-((1R,2R)-2-hydroxycyclopentyl)-3-methoxybenzamide] | < 10 nM
2 | CN1C(=O)C(C)(C)CN(C2CCCC2)c2nc(Nc3cccc(C(=O)NC4CCOCC4)c3)ncc21 [Compound I-141, 3-(9-Cyclopentyl-6,7,8,9-tetrahydro-5,7,7-trimethyl-6-oxo-5H-pyrimido[4,5-b][1,4]diazepin-2-ylamino)-N-(tetrahydro-2H-pyran-4-yl)benzamide] | 10 to 100 nM
3 | COc1cc(C(=O)Nc2nccs2)ccc1Nc1ncc2c(n1)N(C1CCCC1)CC(C)(C)C(=O)N2C [Compound I-223, 4-(9-cyclopentyl-5,7,7-trimethyl-6-oxo-6,7,8,9-tetrahydro-5H-pyrimido[4,5-b][1,4]diazepin-2-ylamino)-3-methoxy-N-(thiazol-2-yl)benzamide] | < 10 nM
4 | CNC(=O)c1ccc(Nc2ncc3c(n2)N(c2cccc(Cl)c2)CC(C)(C)C(=O)N3C)c(OC)c1 [Compound I-161, 4-(9-(3-chlorophenyl)-6,7,8,9-tetrahydro-5,7,7-trimethyl-6-oxo-5H-pyrimido[4,5-b][1,4]diazepin-2-ylamino)-3-methoxy-N-methylbenzamide] | 10 to 100 nM
5 | COc1cc(C(=O)NCCN2CC[C@H](F)C2)ccc1Nc1ncc2c(n1)N(C1CCCC1)CC(C)(C)C(=O)N2C [Compound I-37, 4-(9-cyclopentyl-6,7,8,9-tetrahydro-5,7,7-trimethyl-6-oxo-5H-pyrimido[4,5-b][1,4]diazepin-2-ylamino)-N-(2-((S)-3-fluoropyrrolidin-1-yl)ethyl)-3-methoxybenzamide] | < 10 nM
6 | CN1C(=O)C(C)(C)CN(C2CCCC2)c2nc(Nc3cccc(NC(=O)CC(F)(F)F)c3)ncc21 [Compound I-145] | 10 to 100 nM
7 | COc1cc(C(=O)NC[C@@H]2CC[C@@H](O)C2)ccc1Nc1ncc2c(n1)N(C1CCCC1)CC(C)(C)C(=O)N2C [Compound I-259, 4-(9-cyclopentyl-5,7,7-trimethyl-6-oxo-6,7,8,9-tetrahydro-5H-pyrimido[4,5-b][1,4]diazepin-2-ylamino)-N-((1R,3R)-3-(hydroxycyclopentyl)methyl)-3-methoxybenzamide] | < 10 nM
8 | COc1cc(C(=O)NCC(C)(C)CO)ccc1Nc1ncc2c(n1)N(C1CCCC1)CC(C)(C)C(=O)N2C [Compound I-211, 4-(9-cyclopentyl-5,7,7-trimethyl-6-oxo-6,7,8,9-tetrahydro-5H-pyrimido[4,5-b][1,4]diazepin-2-ylamino)-N-(3-hydroxy-2,2-dimethylpropyl)-3-methoxybenzamide] | < 10 nM
9 | COc1cc(C(=O)NCC2CCCCC2)ccc1Nc1ncc2c(n1)N(C1CCCC1)CC(C)(C)C(=O)N2C [Compound I-196, N-(cyclohexylmethyl)-4-(9-cyclopentyl-5,7,7-trimethyl-6-oxo-6,7,8,9-tetrahydro-5H-pyrimido[4,5-b][1,4]diazepin-2-ylamino)-3-methoxybenzamide] | < 10 nM
10 | COc1cc(C(=O)NC2CCN(C)CC2)ccc1Nc1ncc2c(n1)N(C1CCCC1)[C@H](C)CC(=O)N2C [Compound I-65, 4-((R)-9-cyclopentyl-6,7,8,9-tetrahydro-5,8-dimethyl-6-oxo-5H-pyrimido[4,5-b][1,4]diazepin-2-ylamino)-3-methoxy-N-(1-methylpiperidin-4-yl)benzamide] | 10 to 100 nM
11 | CNC(=O)c1ccc(Nc2ncc3c(n2)N([C@@H]2CCN(C)C2)CC(C)(C)C(=O)N3C)c(OC)c1 [Compound I-20, 4-(6,7,8,9-tetrahydro-5,7,7-trimethyl-9-((R)-1-methylpyrrolidin-3-yl)-6-oxo-5H-pyrimido[4,5-b][1,4]diazepin-2-ylamino)-3-methoxy-N-methylbenzamide] | 10 to 100 nM
12 | COc1cc(C(=O)NCC2CCCO2)ccc1Nc1ncc2c(n1)N(C1CCCC1)CC(C)(C)C(=O)N2C (stereo not drawn) [Compound I-194, 4-(9-cyclopentyl-5,7,7-trimethyl-6-oxo-6,7,8,9-tetrahydro-5H-pyrimido[4,5-b][1,4]diazepin-2-ylamino)-3-methoxy-N-((tetrahydrofuran-2-yl)methyl)benzamide] | < 10 nM
13 | COc1cc(C(=O)NCc2cc(C)on2)ccc1Nc1ncc2c(n1)N(C1CCCC1)CC(C)(C)C(=O)N2C [Compound I-235, 4-(9-cyclopentyl-5,7,7-trimethyl-6-oxo-6,7,8,9-tetrahydro-5H-pyrimido[4,5-b][1,4]diazepin-2-ylamino)-3-methoxy-N-((5-methylisoxazol-3-yl)methyl)benzamide] | < 10 nM
14 | COc1cc(C(=O)Nc2ccccn2)ccc1Nc1ncc2c(n1)N(C1CCCC1)CC(C)(C)C(=O)N2C [Compound I-221, 4-(9-cyclopentyl-5,7,7-trimethyl-6-oxo-6,7,8,9-tetrahydro-5H-pyrimido[4,5-b][1,4]diazepin-2-ylamino)-3-methoxy-N-(pyridin-2-yl)benzamide] | < 10 nM
15 | COc1cc(C(=O)Nc2ccncn2)ccc1Nc1ncc2c(n1)N(C1CCCC1)CC(C)(C)C(=O)N2C [Compound I-222, 4-(9-cyclopentyl-5,7,7-trimethyl-6-oxo-6,7,8,9-tetrahydro-5H-pyrimido[4,5-b][1,4]diazepin-2-ylamino)-3-methoxy-N-(pyrimidin-4-yl)benzamide] | < 10 nM
16 | CNC(=O)c1ccc(Nc2ncc3c(n2)N(C2CCCC2)CC(C)(C)c2nncn2-3)c(OC)c1 [Compound I-36, 4-(6-Cyclopentyl-4,4-dimethyl-5,6-dihydro-4H-2,3,6,7,9,10b-hexaazabenzo[e]azulen-8-ylamino)-3-methoxy-N-methylbenzamide] | < 10 nM
17 | COc1cc(C(=O)NC(C)(C)CO)ccc1Nc1ncc2c(n1)N(C1CCCC1)CC1(CC1)C(=O)N2C [Compound I-271, 4-(9′-cyclopentyl-5′-methyl-6′-oxo-5′,6′,8′,9′-tetrahydrospiro[cyclopropane-1,7′-pyrimido[4,5-b][1,4]diazepine]-2′-ylamino)-N-(1-hydroxy-2-methylpropan-2-yl)-3-methoxybenzamide] | < 10 nM
18 | CNC(=O)c1ccc(Nc2ncc3c(n2)N(CC2CCC2)CC(C)(C)C(=O)N3C)c(OC)c1 [Compound I-123, 4-(9-(cyclobutylmethyl)-6,7,8,9-tetrahydro-5,7,7-trimethyl-6-oxo-5H-pyrimido[4,5-b][1,4]diazepin-2-ylamino)-3-methoxy-N-methylbenzamide] | < 10 nM
19 | COc1cc(C(=O)NN2CCCC2)ccc1Nc1ncc2c(n1)N(C1CCCC1)CC(C)(C)C(=O)N2C [Compound I-206, 4-(9-cyclopentyl-5,7,7-trimethyl-6-oxo-6,7,8,9-tetrahydro-5H-pyrimido[4,5-b][1,4]diazepin-2-ylamino)-3-methoxy-N-(pyrrolidin-1-yl)benzamide] | < 10 nM
20 | CN1C(=O)CCN(C2CCCC2)c2nc(Nc3ccc(C(=O)O)cc3)ncc21 [Compound I-3, 4-(9-Cyclopentyl-6,7,8,9-tetrahydro-5-methyl-6-oxo-5H-pyrimido[4,5-b][1,4]diazepin-2-ylamino)-benzoic acid] | 10 to 100 nM
21 | COc1cc(C(=O)Nc2ccccc2)ccc1Nc1ncc2c(n1)N(C1CCCC1)CC(C)(C)C(=O)N2C [Compound I-200, 4-(9-cyclopentyl-5,7,7-trimethyl-6-oxo-6,7,8,9-tetrahydro-5H-pyrimido[4,5-b][1,4]diazepin-2-ylamino)-3-methoxy-N-phenylbenzamide] | < 10 nM
22 | COc1cc(C(=O)NCC2(O)CCCCC2)ccc1Nc1ncc2c(n1)N(C1CCCC1)CC(C)(C)C(=O)N2C [Compound I-205, 4-(9-cyclopentyl-5,7,7-trimethyl-6-oxo-6,7,8,9-tetrahydro-5H-pyrimido[4,5-b][1,4]diazepin-2-ylamino)-N-((1-hydroxycyclohexyl)methyl)-3-methoxy-benzamide] | < 10 nM
23 | CNC(=O)c1ccc(Nc2ncc3c(n2)N(C2CCCC2)CC2(CCC2)C(=O)N3C)c(OC)c1 [Compound I-60, 4-(9′-cyclopentyl-5′-methyl-6′-oxo-5′,6′,8′,9′-tetrahydrospiro[cyclobutane-1,7′-pyrimido[4,5-b][1,4]diazepine]-2′-ylamino)-3-methoxy-N-methylbenzamide] | < 10 nM
24 | CN1C(=O)C(C)(C)CN(C2CCCC2)c2nc(Nc3ccc(N)cc3)ncc21 [Compound I-117, 2-(4-aminophenylamino)-9-cyclopentyl-8,9-dihydro-5,7,7-trimethyl-5H-pyrimido[4,5-b][1,4]diazepin-6(7H)-one] | 10 to 100 nM
25 | COc1ccccc1Nc1ncc2c(n1)N(C1CCCC1)CCC(=O)N2C [Compound I-188, 9-cyclopentyl-2-(2-methoxyphenylamino)-5-methyl-8,9-dihydro-5H-pyrimido[4,5-b][1,4]diazepin-6(7H)-one] | 10 to 100 nM
26 | COc1cc(C(=O)NCC2CCOCC2)ccc1Nc1ncc2c(n1)N(C1CCCC1)CC(C)(C)C(=O)N2C [Compound I-195, 4-(9-cyclopentyl-5,7,7-trimethyl-6-oxo-6,7,8,9-tetrahydro-5H-pyrimido[4,5-b][1,4]diazepin-2-ylamino)-3-methoxy-N-((tetrahydrofuran-2H-pyran-4-yl)methyl)benzamide] | < 10 nM
27 | COC(=O)Nc1cccc(Nc2ncc3c(n2)N(C2CCCC2)CC(C)(C)C(=O)N3C)c1 [Compound I-155] | 10 to 100 nM
28 | COc1cc(C(=O)NC2CCCC2)ccc1Nc1ncc2c(n1)N(C1CCCC1)C[C@H](C)C(=O)N2C [Compound I-173, 4-((S)-9-cyclopentyl-6,7,8,9-tetrahydro-5,7-dimethyl-6-oxo-5H-pyrimido[4,5-b][1,4]diazepin-2-ylamino)-N-cyclopentyl-3-methoxybenzamide] | < 10 nM
29 | COc1cc(C(=O)NC(C)(CO)CO)ccc1Nc1ncc2c(n1)N(C1CCCC1)CC(C)(C)C(=O)N2C [Compound I-136, 4-(9-cyclopentyl-6,7,8,9-tetrahydro-5,7,7-trimethyl-6-oxo-5H-pyrimido[4,5-b][1,4]diazepin-2-ylamino)-N-(1,3-dihydroxy-2-methylpropan-2-yl)-3-methoxybenzamide] | < 10 nM
30 | COCCNC(=O)c1cccc(Nc2ncc3c(n2)N(C2CCCC2)CC(C)(C)C(=O)N3C)c1 [Compound I-144, 3-(9-Cyclopentyl-6,7,8,9-tetrahydro-5,7,7-trimethyl-6-oxo-5H-pyrimido[4,5-b][1,4]diazepin-2-ylamino)-N-(2-methoxyethyl)benzamide] | 10 to 100 nM
